Data reported in US20250066343A1, “NOVEL CANNAB[…] DERIVATIVE, PREPARATION METHOD THEREFOR, AND COMPOSITION COMPRISING SAME FOR IMPROVING COGNITIVE FUNCTION” (priority 2021, published 2025).
pIC50: −log10 of the molar value.

Assays:
Type in all cases: biochemical
[1] = biological target: Acetylcholinesterase (AChE) (Homo sapiens, UniProt P22303); assay: Acetylcholinesterase inhibitory efficacy (acetylthiocholine/DTNB absorbance assay)
Description: (§1) Acetylcholinesterase or butyrylcholinesterase was prepared at 50 mU/ml, 50 μl was added to a 96-well plate, mixed with the aliquoted compound, and left for 10 minutes. The substrate, acetylthiocoline 0.05 mg/mL or butyrylthiocoline 0.1 mg/ml, was prepared and 50 μl was added to a 96-well plate and left for 10 minutes. Dithionitrobenzoic acid (DTNB) was prepared at 0.3 mg/ml, then 50 μl was added to a 96-well plate and left for 10 minutes.

[2] = biological target: Butyrylcholinesterase (BuChE) (Homo sapiens, UniProt P06276); assay: Butyrylcholinesterase inhibitory efficacy (butyrylthiocholine/DTNB absorbance assay); details: compound 0-200 μM; enzyme 50 mU/ml; N.D. = Not Detected
Chain of Butyrylcholinesterase (BuChE) (P06276 29-602): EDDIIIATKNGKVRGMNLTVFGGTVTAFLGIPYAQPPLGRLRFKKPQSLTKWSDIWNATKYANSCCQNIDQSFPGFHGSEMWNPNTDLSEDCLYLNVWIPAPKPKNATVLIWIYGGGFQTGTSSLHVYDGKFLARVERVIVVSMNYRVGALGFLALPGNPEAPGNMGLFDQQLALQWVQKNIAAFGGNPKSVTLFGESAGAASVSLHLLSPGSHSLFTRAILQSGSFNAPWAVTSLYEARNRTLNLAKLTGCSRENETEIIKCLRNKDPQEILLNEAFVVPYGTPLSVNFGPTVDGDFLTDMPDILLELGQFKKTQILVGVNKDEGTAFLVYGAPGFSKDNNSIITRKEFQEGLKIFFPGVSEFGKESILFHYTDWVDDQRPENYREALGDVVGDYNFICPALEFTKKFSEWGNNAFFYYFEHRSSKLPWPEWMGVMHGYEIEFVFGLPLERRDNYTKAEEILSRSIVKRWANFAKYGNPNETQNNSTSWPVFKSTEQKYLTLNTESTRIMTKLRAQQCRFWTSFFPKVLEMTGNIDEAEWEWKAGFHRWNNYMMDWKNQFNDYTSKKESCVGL
Description: as §1

[3] = biological target: T1, Monoamine oxidase B (MAO-B) (Homo sapiens, UniProt P27338); assay: Monoamine oxidase B inhibitory efficacy (kynuramine fluorescence assay); details: compound 0-200 μM; enzyme 2 mU/mL; kynuramine substrate; N.D. = Not Detected
T1 sequence (P27338 1-520): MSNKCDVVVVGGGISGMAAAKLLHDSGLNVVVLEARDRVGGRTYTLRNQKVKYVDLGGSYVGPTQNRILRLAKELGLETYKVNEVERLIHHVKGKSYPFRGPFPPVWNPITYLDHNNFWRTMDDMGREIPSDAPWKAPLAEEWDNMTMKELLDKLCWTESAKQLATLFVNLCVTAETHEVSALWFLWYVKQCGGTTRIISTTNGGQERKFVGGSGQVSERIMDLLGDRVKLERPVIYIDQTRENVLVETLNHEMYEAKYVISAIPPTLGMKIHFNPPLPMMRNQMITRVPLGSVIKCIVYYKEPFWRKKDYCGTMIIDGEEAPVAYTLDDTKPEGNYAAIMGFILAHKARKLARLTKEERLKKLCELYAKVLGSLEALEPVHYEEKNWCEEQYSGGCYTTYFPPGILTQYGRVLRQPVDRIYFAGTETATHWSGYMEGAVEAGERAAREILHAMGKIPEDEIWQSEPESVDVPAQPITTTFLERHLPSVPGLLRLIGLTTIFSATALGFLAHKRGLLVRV
Description: Samples were prepared by dilution with DMSO to give concentrations of 0, 2, 5, 10, 20, 50, 100, and 200 μM of the compound, and 5 μl was dispensed into a 96-well plate. 135 μl of potassium phosphate buffer (0.1 M, 7.4 pH) was dispensed into a 96-well plate. Monoamine oxidase B was prepared at 2 mU/mL, and 50 μl was added to the 96-well plate, mixed with the dispensed compound, and left for 20 minutes. The substrate, kynuramine solution, was prepared at 100 μM, then 10 μl was added to a 96-well plate and left for 10 min. The reaction was stopped by adding 75 μl of NaOH (2N). The enzyme activity was calculated by measuring the concentration of kynuramine degraded by the enzyme using a fluorometer under 310 nm (excitation)/380 nm (emission) conditions. For the fluorescence blank experiment, potassium phosphate buffer was added instead of monoamine oxidase B to correct the compound-induced fluorescence intensity values.

Chain of Acetylcholinesterase (AChE) (P22303 32-614, species assumed): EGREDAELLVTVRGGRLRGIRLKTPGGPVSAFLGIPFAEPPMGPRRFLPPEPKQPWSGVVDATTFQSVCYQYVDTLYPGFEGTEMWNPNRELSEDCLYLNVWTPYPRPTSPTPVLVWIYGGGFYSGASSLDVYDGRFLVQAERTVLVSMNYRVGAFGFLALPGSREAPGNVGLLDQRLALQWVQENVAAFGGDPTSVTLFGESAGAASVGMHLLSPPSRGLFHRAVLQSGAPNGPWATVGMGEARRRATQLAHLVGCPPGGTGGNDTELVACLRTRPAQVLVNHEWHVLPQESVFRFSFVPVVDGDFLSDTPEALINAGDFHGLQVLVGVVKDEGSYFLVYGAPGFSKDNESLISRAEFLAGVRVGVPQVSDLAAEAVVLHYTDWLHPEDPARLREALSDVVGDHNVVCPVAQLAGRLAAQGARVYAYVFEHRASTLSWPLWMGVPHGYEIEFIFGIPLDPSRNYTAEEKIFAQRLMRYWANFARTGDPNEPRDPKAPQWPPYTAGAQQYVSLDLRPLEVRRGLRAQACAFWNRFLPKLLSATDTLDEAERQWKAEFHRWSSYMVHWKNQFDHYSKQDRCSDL

| Structure (SMILES) | pIC50 [1] | pIC50 [2] | pIC50 [3] |
| --- | --- | --- | --- |
| CCCCCc1cc2c(c(O)c1C(=O)NC1Cc3ccccc3C1)C=CC(C)(CCC=C(C)C)O2 (centres unmarked) [Compound 4aa, N-(2,3-dihydro-1H-inden-2-yl)-5-hydroxy-2-methyl-2-(4-methylpent-3-en-1-yl)-7-pentyl-2H-chromene-6-carboxamide] | 5.70 | 3.79 | 4.00 |
| CCCCCc1cc2c(c(O)c1C(=O)N1CCN(CCO)CC1)C=CC(C)(CCC=C(C)C)O2 (centres unmarked) [Compound 4ae, (5-hydroxy-2-methyl-2-(4-methylpent-3-en-1-yl)-7-pentyl-2H-chromen-6-yl)(4-(2-hydroxyethyl)piperazin-1-yl)methanone] | > 6.30 | 4.14 | 4.25 |
| CCCCCc1cc2c(c(O)c1C(=O)Nc1ccccc1)C=CC(C)(CCC=C(C)C)O2 (centres unmarked) [Compound 4b, 5-hydroxy-2-methyl-2-(4-methylpent-3-en-1-yl)-7-pentyl-N-phenyl-2H-chromene-6-carboxamide] | 6.40 | 4.02 | 3.75 |
| CCCCCc1cc2c(c(O)c1C(=O)NC1CCN(C)CC1)C=CC(C)(CCC=C(C)C)O2 (centres unmarked) [Compound 4q, 5-hydroxy-2-methyl-2-(4-methylpent-3-en-1-yl)-N-(1-methylpiperidin-4-yl)-7-pentyl-2H-chromene-6-carboxamide] | – | 5.21 | 3.88 |
| CCCCCc1cc2c(c(O)c1C(=O)NN1CCCCC1)C=CC(C)(CCC=C(C)C)O2 (centres unmarked) [Compound 4z, 5-hydroxy-2-methyl-2-(4-methylpent-3-en-1-yl)-7-pentyl-N-(piperidin-1-yl)-2H-chromene-6-carboxamide] | 4.54 | 5.89 | 3.81 |
